Results on 1 compound are retold here after patent publication EP4380555B1, “COMPOSITION COMPRISING D-MANNOSE, N-ACETYLCYSTEINE AND PALMITOYLETHANOLAMIDE AND ITS USE FOR THE TREATMENT OF URIRNARY TRACT INFECTIONS” (Agave S.r.l., priority 2021, dated 2023).

Converted amounts (≈) assume the structure as drawn. Where only a bound is given, the exact number is not on record here.

As a reminder, the MIC is the least concentration at which growth counts as inhibited.

What all share (assay type): cell-based
The subject of assay [1] is Klebsiella pneumoniae. The assay can be described thus: Minimum biofilm inhibitory concentration (MBIC), crystal violet staining, comparison with fosfomycin. As to conditions: K. pneumoniae; 24 h. On the procedure:
(§1) The capacity of the product Comp. […] The formation of the biofilm was viewed by means of Crystal Violet staining, wherein the stain penetrates the bacterial cells and turns them purple. To determine the MBIC, 48-well plates were utilised. 200 µL of the sample, prepared at a concentration of 2x with respect to the maximum concentration being tested, was dispensed into the first well and 100 µL of medium was added to the subsequent wells, performing serial dilutions of 1:2 up to the 8th well. Finally, 100 µL of each microorganism at a concentration of 10^5 were inoculated into each well. The biofilm inhibition activity of the fosfomycin, at a lower concentration with respect to the MIC value measured in Example 10, was also assessed and the sterility and growth tests were performed for each microorganism. The multiwell plates were incubated at 37°C for 24 hours and then the supernatant present was removed, together with the planktonic bacteria not attached to the plate. The biofilm was then washed 3 times with PBS and subsequently the cells were fixed by means of incubation at 60°C for 2 hours, before being stained with crystal violet. The crystal violet staining was performed to assess the effect of the product and the fosfomycin on the formation of the biofilm. 50 µL crystal violet dissolved in deionised water was dispensed into each well and, after 5 minutes of incubation at room temperature, each well was finally washed three times with PBS 1x. The biofilm inhibition activity was viewed by microscopic observation under stereomicroscope and optical microscope using the phase-contrast method. The final concentrations tested for each sample are stated in Table 3. Table 3 [table]

Assay [2] has as its system Enterococcus faecium. The assay is described as above. As to conditions: E. faecium; 24 h. On the procedure:
as §1

The test system of assay [3] is Escherichia coli. The assay is described as above. The conditions noted are these: E. coli; 24 h. On the procedure: as §1
Assay [4] deals with Klebsiella pneumoniae. Nature of the assay: Minimum biofilm eradication concentration (MBEC), 72 h preformed biofilm, crystal violet staining. The conditions noted are these: K. pneumoniae; 72 h biofilm, 24 h treatment. On the procedure:
(§2) To determine the minimum biofilm eradication concentration, 48-well plates were utilised. The microorganisms were incubated for 72 h at 37°C to allow the formation of the biofilm. Once formed, the biofilm was treated with fosfomycin and with the product Comp. 1 in Example 10. In particular, after the formation of the biofilm, the supernatant was suctioned and replaced with solutions containing gradually decreasing concentrations of product or of fosfomycin. The plates thus prepared were incubated for 24 h at 37°C. At the end of the incubation time, the supernatant present in each well was removed, together with the bacteria that was not attached to the plate and, after washing, the plates were incubated at 60°C for 2 hours to fix the cells before the staining with crystal violet. The crystal violet staining was performed to assess the effect of the product and the fosfomycin on the removal of the biofilm. 50 µL crystal violet dissolved in deionised water was dispensed into each well. After 5 minutes of incubation at room temperature, each well was washed three times with PBS 1x. The biofilm eradication activity was viewed under microscopic observation (Figures 7-9). The final concentrations tested for each product are stated in Table 4 Table 4 [table]

In assay [5] the test system is Enterococcus faecium. The assay is described as above. The conditions noted are these: E. faecium; fosfomycin 3000-23.44 µg/mL tested. On the procedure: as §2
Assay [6] relates to Escherichia coli. Described as above. The conditions noted are these: E.coli; fosfomycin 30000-234.38 µg/mL tested. On the procedure: as §2
In assay [7] the test system is Klebsiella pneumoniae (DSM 30104). The assay can be described thus: MIC determination by broth dilution (CLSI M07), 96-well plates. As to conditions: Klebsiella pneumoniae, DSM30104; Klebsiella, 37°C, 24 h. On the procedure: (§3) The antimicrobial activity of the product Comp. 1 in Example 10 was tested in vitro according to method CLSI M07 "Methods for dilution Antimicrobial susceptibility tests for bacteria that grow aerobically".
(§4) For this purpose, the MIC (Minimum Inhibitory Concentration) values were determined with respect to the main microorganisms responsible for urinary tract infections.
(§5) More specifically, the microorganisms utilised were: Escherichia coli (DSM 1576), Klebsiella pneumoniae (DSM 30104), and Enterococcus faecalis(DSM 20477).
(§6) For each experiment conducted, the bacteria stated above were revived from a cell bank stored at -80°C. […]
(§7) The assay to determine the MIC was conducted in 96-well plates testing 12 concentrations (serial dilutions) of each sample. 200 µL of the sample, prepared at a concentration of 2x with respect to the maximum concentration being tested, was dispensed into the first well and 100 µL medium was added to the subsequent wells, performing serial dilutions of 1:2 up to 12th well. Finally, 100 µL of each microorganism at a concentration of 10^5 was inoculated into each well.
(§8) Two antibiotics were used as controls: Fosfomycin (Sigma) and Ceftriaxone (Sigma) at different final concentrations based on the microorganism utilised; both the antibiotics were dissolved in sterile water and then filtered with 0.22 µm filters.
(§9) Growth was tested and the sterility of the medium and of the product was tested. The antimicrobial activity of the D-mannose was also assessed individually. The plates thus prepared were incubated at 37°C for 24h and the results were then observed (Figure 1). The final concentrations tested for each product analysed are stated in Table 2.
On the technique in general: Broth dilution looks for growth in wells or tubes with falling amounts of substance.

Assay [8] relates to Escherichia coli (DSM 1576). The assay is described as above. As to conditions: Escherichia coli, DSM1576; E. coli, 37°C, 24 h. On the procedure:
as §3, §4, §5, §6, §7, §8, §9

Assay [9] has as its system Enterococcus faecium. The description is as above. The conditions noted are these: Enterococcus faecium; E. faecium, 37°C, 24 h.

As for `C[C@@H]1O[C@@H]1P(=O)(O)O` [fosfomycin, Fosfomycin], the “concentrations with a biofilm inhibition effect” value with Klebsiella pneumoniae [1] and with Escherichia coli [3] was not below 78 µg/mL in each case. For the same compound, in the assay with Enterococcus faecium [2], the “concentration necessary for biofilm inhibition effect” value is “at least 321 µg/mL”. Besides, the “concentrations with biofilm eradication activity” value in the assay with Klebsiella pneumoniae [4] is listed as “greater than 468 µg/mL”. Further, the biofilm eradication effect entry in the assay on Enterococcus faecium [5] and in the assay with Escherichia coli [6] was “did not seem to have a biofilm eradication effect” throughout. Further, the figures for the MIC (in assay [7]; in [8]; against Enterococcus faecium [9]) were 5000 µg/mL (≈ 36200 µM), 19.5 µg/mL (≈ 141 µM) and 78.1 µg/mL (≈ 566 µM), respectively.
